Assays:
human CYP11B1 = target: T1, human CYP11B1 (Homo sapiens, UniProt P15538); assay: G-402 cellular enzyme assay, human CYP11B1 (cortisol release, HTRF); format: cell-based; conditions: G-402 cells, 1 μM Deoxycortisol
T1 construct: expressed in transfected cells
T1 sequence (P15538 25-503): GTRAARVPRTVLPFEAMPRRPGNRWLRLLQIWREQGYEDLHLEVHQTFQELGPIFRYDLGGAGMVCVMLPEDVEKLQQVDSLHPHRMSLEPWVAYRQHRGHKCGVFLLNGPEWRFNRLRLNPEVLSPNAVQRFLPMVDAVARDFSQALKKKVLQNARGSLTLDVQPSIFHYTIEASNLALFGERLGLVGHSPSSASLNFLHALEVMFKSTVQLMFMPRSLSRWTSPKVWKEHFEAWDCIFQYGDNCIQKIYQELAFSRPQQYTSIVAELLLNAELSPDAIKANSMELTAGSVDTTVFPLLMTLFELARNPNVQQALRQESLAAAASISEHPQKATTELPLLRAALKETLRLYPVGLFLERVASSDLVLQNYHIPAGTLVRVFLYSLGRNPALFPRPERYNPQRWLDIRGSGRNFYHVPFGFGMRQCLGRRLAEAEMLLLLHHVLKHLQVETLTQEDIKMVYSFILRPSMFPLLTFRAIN
Summary of the method: (§1)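 Steroid output from supernatants, quantified by HTRF as cortisol for CYP11B1 or aldosterone for CYP11B2, gave EC50 values by least-squares 4-parameter MMF fitting against inhibitor concentration. Stably transfected G-402 cells carrying the human enzyme received 1 μM deoxycortisol or 1 μM deoxycorticosterone respectively, 16 h, DMEM/F12 with 2.5% charcoal-stripped FCS.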

human CYP11B2 = target: T2, human CYP11B2 (Homo sapiens, UniProt P19099); assay: G-402 cellular enzyme assay, human CYP11B2 (aldosterone release, HTRF); format: cell-based; conditions: G-402 cells, 1 μM Deoxycorticosterone
T2 construct: expressed in transfected cells
T2 sequence (P19099 25-503): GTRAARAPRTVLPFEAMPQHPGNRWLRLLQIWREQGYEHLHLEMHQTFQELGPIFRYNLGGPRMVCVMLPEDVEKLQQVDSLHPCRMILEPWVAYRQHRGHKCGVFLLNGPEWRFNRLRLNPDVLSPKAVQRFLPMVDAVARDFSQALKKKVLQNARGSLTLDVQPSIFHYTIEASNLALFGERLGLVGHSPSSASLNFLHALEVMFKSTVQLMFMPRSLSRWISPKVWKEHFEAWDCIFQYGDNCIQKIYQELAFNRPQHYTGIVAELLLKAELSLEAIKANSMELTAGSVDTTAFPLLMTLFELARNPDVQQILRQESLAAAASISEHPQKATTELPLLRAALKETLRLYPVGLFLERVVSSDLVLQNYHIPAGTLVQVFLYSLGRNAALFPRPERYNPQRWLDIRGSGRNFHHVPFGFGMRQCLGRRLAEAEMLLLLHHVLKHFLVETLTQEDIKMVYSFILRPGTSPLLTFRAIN
Summary of the method: as §1

Row | EC50 (human CYP11B1) | EC50 (human CYP11B2) | SMILES
1 | 12400 nM | 40.3 nM | CC[C@@H]1c2cc(Cl)ccc2C(=O)N1c1cncc2c1CC[C@H]2NS(C)(=O)=O (single isomer, unassigned) [Example 369, N-[(R or S)-4-((R or S)-5-Chloro-3-ethyl-1-oxo-1,3-dihydro-isoindol-2-yl)-6,7-dihydro-5H-[2]pyrindin-7-yl]-methanesulfonamide]
2 | 5470 nM | 316 nM | CCC1c2cc(Cl)ccc2C(=O)N1c1cncc(CNS(=O)(=O)CC)c1 (single isomer, unassigned) [Example 390, Ethanesulfonic acid [5-((S or R)-5-chloro-3-ethyl-1-oxo-1,3-dihydro-isoindol-2-yl)-pyridin-3-ylmethyl]-amide]
3 | 35200 nM | 546 nM | CCC1c2ccc(Cl)cc2C(=O)N1c1cncc(CNS(C)(=O)=O)c1 (single isomer, unassigned) [Example 405, N-[5-((S or R)-5-Chloro-1-ethyl-3-oxo-1,3-dihydro-isoindol-2-yl)-pyridin-3-ylmethyl]-methane-sulfonamide]
4 | 2180 nM | 28.8 nM | CC(=O)NC1CCCc2c1cncc2N1C(=O)c2ccc(Cl)cc2C1(C)C (single isomer, unassigned) [Example 467, N—[(R or S)-4-(6-Chloro-1,1-dimethyl-3-oxo-1,3-dihydro-isoindol-2-yl)-5,6,7,8-tetrahydro-isoquinolin-8-yl]-acetamide]
5 | 1830 nM | 40.2 nM | CCS(=O)(=O)NC1CCCc2c1cncc2N1Cc2cc(Cl)ccc2C1=O (single isomer, unassigned; (+)) [Example 316, (+)-Ethanesulfonic acid [(R or S)-4-(5-chloro-1-oxo-1,3-dihydro-isoindol-2-yl)-5,6,7,8-tetrahydro-isoquinolin-8-yl]-amide]
6 | 2640 nM | 109 nM | CCS(=O)(=O)NC1CCCc2c1cncc2N1Cc2cc(Cl)ccc2C1=O (single isomer, unassigned; (-)) [Example 317, (−)-Ethanesulfonic acid [(S or R)-4-(5-chloro-1-oxo-1,3-dihydro-isoindol-2-yl)-5,6,7,8-tetrahydro-isoquinolin-8-yl]-amide]
7 | 4610 nM | 86 nM | O=C1c2ccc(Cl)cc2CCN1c1cccnc1 [Example 1, 6-Chloro-2-pyridin-3-yl-3,4-dihydro-2H-isoquinolin-1-one]
8 | 7390 nM | 442 nM | N#Cc1cncc(N2CCc3cc(Cl)ccc3C2=O)c1 [Example 2, 5-(6-Chloro-1-oxo-3,4-dihydro-1H-isoquinolin-2-yl)-nicotinonitrile]
9 | 4270 nM | 92.5 nM | O=C1c2ccc(Cl)cc2CCN1c1cncc(F)c1 [Example 5, 6-Chloro-2-(5-fluoro-pyridin-3-yl)-3,4-dihydro-2H-isoquinolin-1-one]
10 | 704 nM | 77.9 nM | O=C1c2ccc(Cl)cc2CCN1c1cncc(Br)c1 [Example 7, 2-(5-Bromo-pyridin-3-yl)-6-chloro-3,4-dihydro-2H-isoquinolin-1-one]
11 | 807 nM | 44.9 nM | Cc1cncc(N2CCc3cc(Cl)ccc3C2=O)c1 [Example 8, 6-Chloro-2-(5-methyl-pyridin-3-yl)-3,4-dihydro-2H-isoquinolin-1-one]
12 | 4740 nM | 117 nM | O=Cc1cncc(N2CCc3cc(Cl)ccc3C2=O)c1 [Example 9, 5-(6-Chloro-1-oxo-3,4-dihydro-1H-isoquinolin-2-yl)-pyridine-3-carbaldehyde]
13 | 822 nM | 26 nM | COc1cncc(N2CCc3cc(Cl)ccc3C2=O)c1 [Example 10, 6-Chloro-2-(5-methoxy-pyridin-3-yl)-3,4-dihydro-2H-isoquinolin-1-one]
14 | 257 nM | 12.7 nM | CC(C)Oc1cncc(N2CCc3cc(Cl)ccc3C2=O)c1 [Example 11, 6-Chloro-2-(5-isopropoxy-pyridin-3-yl)-3,4-dihydro-2H-isoquinolin-1-one]
15 | 118 nM | 35.7 nM | CC(C)(O)c1cncc(N2CCc3cc(Cl)ccc3C2=O)c1 [Example 12, 6-Chloro-2-[5-(1-hydroxy-1-methyl-ethyl)-pyridin-3-yl]-3,4-dihydro-2H-isoquinolin-1-one]

Continued, compound first:

Row | SMILES | EC50 (human CYP11B1) | EC50 (human CYP11B2)
16 | CC(=O)N[C@@H]1CCCc2c1cncc2N1C(=O)c2ccc(Cl)cc2[C@H]1C1CC1 (single isomer, unassigned) [Example 372, N-[(R or S)-4-((R or S)-5-Chloro-3-cyclopropyl-1-oxo-1,3-dihydro-isoindol-2-yl)-5,6,7,8-tetrahydro-isoquinolin-8-yl]-acetamide] | 22800 nM | 100 nM
17 | CCC(=O)N[C@@H]1CCc2c1cncc2N1C(=O)c2ccc(Cl)cc2[C@H]1C (single isomer, unassigned) [Example 376, N-[(R or S)-4-((R or S)-5-Chloro-3-methyl-1-oxo-1,3-dihydro-isoindol-2-yl)-6,7-dihydro-5H-[2]pyrindin-7-yl]-propionamide] | 7960 nM | 26 nM
18 | CCC(=O)N[C@H]1CCc2c1cncc2N1C(=O)c2ccc(Cl)cc2[C@H]1C (single isomer, unassigned) [Example 377, N-[(S or R)-4-((R or S)-5-Chloro-3-methyl-1-oxo-1,3-dihydro-isoindol-2-yl)-6,7-dihydro-5H-[2]pyrindin-7-yl]-propionamide] | 448 nM | 3.4 nM
19 | CCC(=O)N[C@H]1CCc2c1cncc2N1C(=O)c2ccc(Cl)cc2[C@@H]1C (single isomer, unassigned) [Example 378, N-[(S or R)-4-((S or R)-5-Chloro-3-methyl-1-oxo-1,3-dihydro-isoindol-2-yl)-6,7-dihydro-5H-[2]pyrindin-7-yl]-propionamide] | 14600 nM | 212 nM
20 | CCC(=O)NCc1cncc(N2C(=O)c3ccc(Cl)cc3C2CC)c1 (single isomer, unassigned) [Example 399, N-[5-((S or R)-5-Chloro-3-ethyl-1-oxo-1,3-dihydro-isoindol-2-yl)-pyridin-3-ylmethyl]-propionamide] | 11300 nM | 313 nM
21 | CCC1c2ccc(Cl)cc2C(=O)N1c1cncc(CNS(C)(=O)=O)c1 (single isomer, unassigned) [Example 407, N-[5-((R or S)-5-Chloro-1-ethyl-3-oxo-1,3-dihydro-isoindol-2-yl)-pyridin-3-ylmethyl]-methane-sulfonamide] | 20700 nM | 987 nM
22 | CCC1c2cc(Cl)ccc2C(=O)N1c1cncc(-c2ccnn2C)c1 (single isomer, unassigned) [Example 428, (R or S)-5-Chloro-3-ethyl-2-[5-(2-methyl-2H-pyrazol-3-yl)-pyridin-3-yl]-2,3-dihydro-isoindol-1-one] | 105 nM | 20 nM
23 | CCC1c2cc(Cl)ccc2C(=O)N1c1cncc(-c2ccnn2C)c1 (single isomer, unassigned) [Example 429, (S or R)-5-Chloro-3-ethyl-2-[5-(2-methyl-2H-pyrazol-3-yl)-pyridin-3-yl]-2,3-dihydro-isoindol-1-one] | 57.7 nM | 4.3 nM
24 | CC(=O)NC1CCCc2c1cncc2N1C(=O)c2ccc(Cl)cc2C1(C)C (single isomer, unassigned) [Example 466, N—[(S or R)-4-(6-Chloro-1,1-dimethyl-3-oxo-1,3-dihydro-isoindol-2-yl)-5,6,7,8-tetrahydro-isoquinolin-8-yl]-acetamide] | 21300 nM | 467 nM
25 | CC(=O)NC1CCc2c1cncc2N1Cc2cc(Cl)ccc2C1=O (single isomer, unassigned; (+)) [Example 319, (+)-N—[(R or S)-4-(5-Chloro-1-oxo-1,3-dihydro-isoindol-2-yl)-6,7-dihydro-5H-[2]pyrindin-7-yl]-acetamide] | 5130 nM | 109 nM
26 | O=C1c2ccc(Cl)cc2CCN1c1cncc(CO)c1 [Example 3, 6-Chloro-2-(5-hydroxymethyl-pyridin-3-yl)-3,4-dihydro-2H-isoquinolin-1-one] | 3720 nM | 96.5 nM
27 | O=C1c2ccc(Cl)cc2CCN1c1cncc(Cl)c1 [Example 4, 6-Chloro-2-(5-chloro-pyridin-3-yl)-3,4-dihydro-2H-isoquinolin-1-one] | 1240 nM | 67.1 nM
28 | O=C1c2ccc(Cl)cc2CCN1c1cnccc1Cl [Example 6, 6-Chloro-2-(4-chloro-pyridin-3-yl)-3,4-dihydro-2H-isoquinolin-1-one] | 1210 nM | 30 nM

— US9133158B2, “Bicyclic dihydroisoquinoline-1-one derivatives” (Hoffmann-La Roche Inc., priority 2011, dated 2015)
